Assay results as given in BindingDB's records for PubMed 9454790 (University of Arizona, 1998).

Assays:
[1] = target: T1, Muscarinic acetylcholine receptor M2 (Homo sapiens, UniProt P08172)
T1 sequence (P08172 whole entry): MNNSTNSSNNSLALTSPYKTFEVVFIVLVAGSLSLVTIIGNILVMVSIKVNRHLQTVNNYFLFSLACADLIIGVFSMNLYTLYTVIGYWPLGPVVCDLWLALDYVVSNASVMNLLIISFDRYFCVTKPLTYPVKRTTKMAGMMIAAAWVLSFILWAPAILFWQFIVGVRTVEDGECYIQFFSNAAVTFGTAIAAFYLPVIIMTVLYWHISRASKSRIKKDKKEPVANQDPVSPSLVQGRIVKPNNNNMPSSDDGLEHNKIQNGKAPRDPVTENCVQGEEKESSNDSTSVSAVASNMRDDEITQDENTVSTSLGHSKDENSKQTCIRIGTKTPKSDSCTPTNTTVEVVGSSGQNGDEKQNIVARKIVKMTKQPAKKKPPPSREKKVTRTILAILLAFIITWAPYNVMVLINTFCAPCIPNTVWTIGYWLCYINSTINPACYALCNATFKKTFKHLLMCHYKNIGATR

[2] = target: T2, Muscarinic acetylcholine receptor M2 (Rattus norvegicus, UniProt P10980)
T2 sequence (P10980 whole entry): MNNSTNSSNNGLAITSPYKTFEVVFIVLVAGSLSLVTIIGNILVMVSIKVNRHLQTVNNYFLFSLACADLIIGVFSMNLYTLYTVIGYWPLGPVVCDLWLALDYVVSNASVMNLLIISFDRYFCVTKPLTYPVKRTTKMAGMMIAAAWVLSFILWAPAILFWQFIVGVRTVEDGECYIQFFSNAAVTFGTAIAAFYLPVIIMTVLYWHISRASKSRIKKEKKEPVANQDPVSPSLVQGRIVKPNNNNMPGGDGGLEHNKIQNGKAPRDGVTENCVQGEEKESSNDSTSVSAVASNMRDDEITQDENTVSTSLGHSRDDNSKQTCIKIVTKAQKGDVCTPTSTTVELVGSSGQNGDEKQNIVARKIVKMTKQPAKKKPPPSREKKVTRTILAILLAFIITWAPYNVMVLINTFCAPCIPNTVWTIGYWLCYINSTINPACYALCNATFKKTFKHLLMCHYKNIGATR

Structure (SMILES)	Ki [1] [nM]	Ki [2] [nM]
CCN(CC)CC1CCCCN1CC(=O)N1c2ccccc2C(=O)Nc2cccnc21 (configuration not stated) [(AF-DX 116) 11-[2-(2-Diethylaminomethyl-piperidin-1-yl)-acetyl]-5,11-dihydro-benzo[e]pyrido[3,2-b][1,4]diazepin-6-one]	67	50
C[N+]1(C)CCO[C@@](O)(c2ccc(-c3ccc([C@@]4(O)C[N+](C)(C)CCO4)cc3)cc2)C1 [CAS_312-45-8]	11	
COc1cc2c3cc1Oc1cc(ccc1O)C[C@H]1c4c(cc(OC)c(O)c4Oc4ccc(cc4)C[C@@H]3N(C)CC2)CC[N+]1(C)C [CAS_57-94-3]	97	
C[N+](C)(C)CCCCCCCCCC[N+](C)(C)C [Decamethonium Iodide]	25	
O=C1CCCN1CC#CCN1CCCC1 [1-[4-(2-oxo-pyrrolidin-1-yl)-but-2-ynyl]-pyrrolidinium]	235	290
CC[N+](CC)(CC)CCOc1cccc(OCC[N+](CC)(CC)CC)c1OCC[N+](CC)(CC)CC		2610
C=C[C@@H]1CN2CC[C@H]1C[C@@H]2[C@H](O)c1ccnc2ccc(OC)cc12 [Quinidine]	7.5	
CN(C)CCCN1c2ccccc2CCc2ccccc21	0.13	
C[C@H]1OC(=O)C2C[C@H]3CCCC[C@@H]3[C@@H](/C=C/[C@@H]3CCC[C@H](C)N3C)C21 (some centres not stated) [HIMBACINE]	12	14
